One compound from article PMC4373826, “Antiviral Effect of Methylated Flavonol Isorhamnetin against Influenza” (PLoS ONE, 2015) can be followed below.

For one assay, the system named is ERK. Nature of the assay: Western blot for ERK phosphorylation. The class given is cell-based, canine. As to conditions: 50 μM. The procedure: To prepare whole-cell extracts, cells were washed 3 times using cold PBS, scraped from the dishes, and suspended in protein extraction buffer containing 1% Triton X-100 (Amresco), 100 mM Tris-HCl, 10 mM NaCl, 10% glycerol, 1 mM sodium orthovanadate (Sigma-Aldrich), 50 mM sodium fluoride (Sigma-Aldrich), and 1 mM phenylmethylsulfonyl fluoride (PMSF; Sigma-Aldrich). After incubation on ice for 30 min, lysates were centrifuged and proteins in the supernatants were quantified using the Bradford Protein Assay Reagent (Bio-Rad). Protein samples were separated via 10% SDS-PAGE and transferred to nitrocellulose membranes ([…]; Protran, Newton, NJ, USA). The membranes were blocked using 5% nonfat dry milk and 0.1% Tween-20 in Tris-buffered saline and probed with the primary antibody. Western blotting was performed using antibodies against t-ERK, p-ERK, actin (Santa Cruz Biotechnology, Dallas, TX, USA), and LC3B (Novus Biologicals, San Diego, CA, USA), as well as anti-mouse, anti-rabbit, and anti-goat IgG-peroxidase-conjugated secondary antibodies (Santa Cruz Biotechnology) and an enhanced chemiluminescence (ECL) kit (Amersham Biosciences, Piscataway, NJ, USA).

The test system of assay [1] is influenza A/PR/8/34 (H1N1).

On to `COc1cc(-c2oc3cc(O)cc(O)c3c(=O)c2O)ccc1O` [Isorhamnetin, isorhamnetin], for which, in the assay on ERK, the “virus-induced ERK phosphorylation” value is given as “significantly suppressed”. Further, the “cell viability after viral infection” value in assay [1] is listed as “increased cell viability in comparison with quercetin treatment”. Moreover, in assay [1] (50 μM, co-treatment for 2 hr), the viral infection result is “significantly inhibited”. Besides, the “influenza virus-induced cell death” value in assay [1] (post-treatment) is given as “apparent suppression”.
